Read-outs that look alike come from different tables or passages of the source. Marks after values point to notes of the source that are not given here.
Tests used:
[1] = Plasma Stability Assay (Example A3), rat plasma; format: in vitro ADME; details: 10 μM, 37° C.; for Rat Plasma Prodrug (%): prodrug remaining; for Rat Plasma Metabolite (%): metabolite (mesembrine, 001) accumulated
Description: (§1) The data is represented in the table below.

[2] = Plasma Stability Assay (Example A3), human plasma; format: in vitro ADME; details: 10 μM, 37° C.; for Human Plasma Prodrug (%): prodrug remaining; for Human Plasma Metabolite (%): metabolite (mesembrine, 001) accumulated
Description: as §1

[3] = Metabolic Stability in Human Hepatocytes; format: in vitro ADME; details: cryopreserved human hepatocytes, 37° C.
Description: A 2.5 uL aliquot of 100 μM test compound was incubated with 247.5 uL of cryopreserved hepatocytes suspended in serum-free incubation medium at 5×10^5 viable cells/mL. The mixture was incubated at 37° C. and shaken at 500 rpm for the designated time points (0.5, 15, 30, 60, 90, or 120 min). At each time point, 25 μL aliquot of incubation mixture was transferred to 125 μL of cold acetonitrile containing internal standard, followed by centrifugation for 30 min at 3,220 g. 100 μL of supernatant was mixed with 100 μL of distilled water for analysis by LC-MS/MS. Peak areas were determined from extracted ion chromatograms and in vitro half-life (t1/2) was determined from the concentration vs time regression slope, in vitro t1/2=0.693/k. Conversion of the in vitro t1/2 (in min) into the in vitro intrinsic clearance (in vitro CLint, in μL/min/10^6 cells) is done using: in vitro CLint=kV/N.

[4] = format: in vitro ADME, mouse; details: 5 μM, 37° C.; for Mouse Plasma Metabolite (%): metabolite (mesembrine) accumulated; for Mouse Plasma Prodrug (%): prodrug remaining
Description: (§2) Each test was carried out in duplicate for each time point; 0 min, 15 min, 30 min, 60 min, 120, 240 min. […]

[5] = format: in vitro ADME, human; details: 5 μM, 37° C.; for Human Plasma Metabolite (%): metabolite (mesembrine) accumulated; for Human Plasma Prodrug (%): prodrug remaining
Description: as §2

in vivo = format: in vivo, mouse; details: for half-life / C0 / clearance / Vd: iv, 2 mg/kg; for C0: back extrapolated; for Vd: read-out: Vss
Description: Total fifteen male mice were used in this study with n=3 mice/time point with sparse sampling study design. Animals were administered through intravenous route with solution formulation of 321 at 2 mg/kg dose.
The extraction procedure for plasma/brain samples and the spiked plasma/brain calibration standards were identical (PMSF Stabilized Plasma and Brain used for Preparation of calibration standards): A 20 μL of study sample plasma/brain or spiked plasma/brain calibration standard was added to individual pre-labeled micro-centrifuge tubes followed by 200 μL of internal standard prepared in acetonitrile (Rosuvastatin, 50 ng/mL) was added except for blank, where 200 μL of acetonitrile was added. Samples were vortexed for 5 minutes. Samples were centrifuged for 10 minutes at a speed of 4000 rpm at 4° C. Following centrifugation, 200 μL of clear supernatant was transferred in 96 well plates and analyzed using LC-MS/MS.
Brain samples were diluted (1-part of tissue: 2-part of buffer) and homogenized. The homogenate was submitted for bioanalysis and the concentrations (ng/mL) received were corrected with dilution factor (3×) and the final reported concentrations were represented in ng/g.
The plasma and brain concentration-time data of 321 and 001 were used for the pharmacokinetic analysis.
LLOQ: 321: 1.02 ng/mL for plasma and brain 001: 1.01 ng/mL for plasma and brain

[6] = 321 after 321 IV 2 mg/kg, 0.08 h
[7] = 321 after 321 IV 2 mg/kg, 0.25 h
[8] = 321 after 321 IV 2 mg/kg, 0.5 h
[9] = male, C57BL/6, mouse, in vivo, 321 in brain after 321 IV 2 mg/kg
[10] = male, C57BL/6, mouse, in vivo, 321 in plasma after 321 IV 2 mg/kg

COc1ccc([C@@]23CCC(OP4(=O)OC(C)CC(C)O4)=C[C@@H]2N(C)CC3)cc1OC (stereo partly drawn) [Compound 423, 2-(((3aS,7aS)-3a-(3,4-dimethoxyphenyl)-1-methyl-2,3,3a, 4,5,7a-hexahydro-1H-indol-6-yl)oxy)-4,6-dimethyl-1,3,2-dioxaphosphinane 2-oxide]
Rat Plasma Prodrug (%) ([1]; 0 min): 100.00% | Rat Plasma Prodrug (%) ([1]; 10 min): >99% | Rat Plasma Prodrug (%) ([1]; 30 min): >99% | Rat Plasma Prodrug (%) ([1]; 60 min): 91.05% | Rat Plasma Prodrug (%) ([1]; 120 min): 83.29% | Rat Plasma Prodrug (%) ([1]; 240 min): 67.32% | Human Plasma Prodrug (%) ([2]; 0 min): 100.00% | Human Plasma Prodrug (%) ([2]; 10 min): >99% | Human Plasma Prodrug (%) ([2]; 30 min): >99% | Human Plasma Prodrug (%) ([2]; 60 min): 98.77% | Human Plasma Prodrug (%) ([2]; 120 min): 97.80% | Human Plasma Prodrug (%) ([2]; 240 min): 89.67% | half-life at 1 μM [3]: 57 min | hepatocyte CLint at 1 μM [3]: 24.4 µL/min/1e6 cells

COc1ccc([C@@]23CCC(OP(=O)(OC(C)C)OC(C)C)=C[C@@H]2N(C)CC3)cc1OC [Compound 321, [(3aS,7aS)-3a-(3,4-dimethoxyphenyl)-1-methyl-3,4,5,7a-tetrahydro-2H-indol-6-yl]diisopropyl phosphate]
Mouse Plasma Metabolite (%) ([4]; 0 min): 11.9% | Mouse Plasma Metabolite (%) ([4]; 15 min): 28.4% | Mouse Plasma Metabolite (%) ([4]; 30 min): 38.3% | Mouse Plasma Metabolite (%) ([4]; 60 min): 51.1% | Mouse Plasma Metabolite (%) ([4]; 120 min): 53.7% | Mouse Plasma Metabolite (%) ([4]; 240 min): 55.2% | Mouse Plasma Prodrug (%) ([4]; 0 min): 100% | Mouse Plasma Prodrug (%) ([4]; 15 min): 77.3% | Mouse Plasma Prodrug (%) ([4]; 30 min): 74.5% | Mouse Plasma Prodrug (%) ([4]; 60 min): 58.4% | Mouse Plasma Prodrug (%) ([4]; 120 min): 43.1% | Mouse Plasma Prodrug (%) ([4]; 240 min): 31.7% | Human Plasma Metabolite (%) ([5]; 0 min): 0.08% | Human Plasma Metabolite (%) ([5]; 15 min): 0.29% | Human Plasma Metabolite (%) ([5]; 30 min): 0.40% | Human Plasma Metabolite (%) ([5]; 60 min): 0.49% | Human Plasma Metabolite (%) ([5]; 120 min): 0.67% | Human Plasma Metabolite (%) ([5]; 240 min): 0.61% | Human Plasma Prodrug (%) ([5]; 0 min): 100% | Human Plasma Prodrug (%) ([5]; 15 min): >99% | Human Plasma Prodrug (%) ([5]; 30 min): >99% | Human Plasma Prodrug (%) ([5]; 60 min): >99% | Human Plasma Prodrug (%) ([5]; 120 min): >99% | Human Plasma Prodrug (%) ([5]; 240 min): 78.2% | Rat Plasma Metabolite (%) ([1]; 0 min): 23.9% | Rat Plasma Metabolite (%) ([1]; 10 min): 53.7% | Rat Plasma Metabolite (%) ([1]; 30 min): 56.0% | Rat Plasma Metabolite (%) ([1]; 60 min): 59.1% | Rat Plasma Metabolite (%) ([1]; 120 min): 59.3% | Rat Plasma Metabolite (%) ([1]; 240 min): 56.7% | Rat Plasma Prodrug (%) ([1]; 0 min): 100.0% | Rat Plasma Prodrug (%) ([1]; 10 min): 74.0% | Rat Plasma Prodrug (%) ([1]; 30 min): 69.8% | Rat Plasma Prodrug (%) ([1]; 60 min): 69.2% | Rat Plasma Prodrug (%) ([1]; 120 min): 68.4% | Rat Plasma Prodrug (%) ([1]; 240 min): 65.7% | Human Plasma Metabolite (%) ([2]; 0 min): 0.40% | Human Plasma Metabolite (%) ([2]; 10 min): 0.50% | Human Plasma Metabolite (%) ([2]; 30 min): 0.57% | Human Plasma Metabolite (%) ([2]; 60 min): 0.65% | Human Plasma Metabolite (%) ([2]; 120 min): 0.82% | Human Plasma Metabolite (%) ([2]; 240 min): 0.96% | Human Plasma Prodrug (%) ([2]; 0 min): 100.0% | Human Plasma Prodrug (%) ([2]; 10 min): >99% | Human Plasma Prodrug (%) ([2]; 30 min): >99% | Human Plasma Prodrug (%) ([2]; 60 min): 98.1% | Human Plasma Prodrug (%) ([2]; 120 min): 94.5% | Human Plasma Prodrug (%) ([2]; 240 min): 96.3% | half-life at 1 μM [3]: 23 min | hepatocyte CLint at 1 μM [3]: 59.4 µL/min/1e6 cells | brain concentrations quantifiable up to (in vivo; 321 after 321 IV 2 mg/kg): ≤ 0.5 h | plasma concentrations quantifiable up to (in vivo; 321 after 321 IV 2 mg/kg): up to 2 h | Brain concentrations (mean) (in vivo; [6]): 99.58 ng/g | Plasma concentrations (mean) (in vivo; [6]): 304.66 ng/mL | Brain concentrations (mean) (in vivo; [7]): 37.11 ng/g | Plasma concentrations (mean) (in vivo; [7]): 104.69 ng/mL | Brain concentrations (mean) (in vivo; [8]): 7.89 ng/g | Plasma concentrations (mean) (in vivo; [8]): 26.16 ng/mL | Plasma concentrations (mean) (in vivo; 321 after 321 IV 2 mg/kg, 1 h): 8.57 ng/mL | Plasma concentrations (mean) (in vivo; 321 after 321 IV 2 mg/kg, 2 h, average of two values): 1.38^d ng/mL | AUClast (in vivo; 321 in brain after 321 IV 2 mg/kg): 27.57 ng·h/g | half-life (in vivo; [9]): 6.6 min | C0 (in vivo; [9]): 0.158 µg/mL | clearance (in vivo; male, C57BL/6, mouse, in vivo, 321 in brain after 321 IV 2 mg/kg, flagged NR (not reportable, very high vs liver blood flow)): 69.2 L/h/kg | Vd (in vivo; [9]): 10.3 L/kg | clearance (in vivo; [10]): 20.4 L/h/kg | half-life (in vivo; [10]): 21.6 min | C0 (in vivo; [10]): 0.504 µg/mL | Vd (in vivo; [10]): 4.8 L/kg | Kp (in vivo; male, C57BL/6, mouse, in vivo, 321 after 321 IV 2 mg/kg, read-out: Brain-Kp): 0.28 | AUC(0-t) (in vivo; [10]): 0.0971 µg·h/mL

COc1ccc([C@@]23CCC(OP(=O)(O)OCOC(=O)C(C)C)=C[C@@H]2N(C)CC3)cc1OC [Compound 408, [[(3aS,7aS)-3a-(3,4-dimethoxyphenyl)-1-methyl-3,4,5,7a-tetrahydro-2H-indol-6-yl]oxy-hydroxy-phosphoryl]oxymethyl 2-methylpropanoate]
Rat Plasma Prodrug (%) ([1]; 0 min): 100.0% | Rat Plasma Prodrug (%) ([1]; 10 min): 63.8% | Rat Plasma Prodrug (%) ([1]; 30 min): 29.2% | Rat Plasma Prodrug (%) ([1]; 60 min): 8.2% | Rat Plasma Prodrug (%) ([1]; 120 min): 0.8% | Rat Plasma Prodrug (%) ([1]; 240 min): 0.0% | Human Plasma Prodrug (%) ([2]; 0 min): 100.0% | Human Plasma Prodrug (%) ([2]; 10 min): 94.2% | Human Plasma Prodrug (%) ([2]; 30 min): 82.6% | Human Plasma Prodrug (%) ([2]; 60 min): 69.1% | Human Plasma Prodrug (%) ([2]; 120 min): 45.4% | Human Plasma Prodrug (%) ([2]; 240 min): 23.5% | half-life at 1 μM [3]: 220 min | hepatocyte CLint at 1 μM [3]: 6.4 µL/min/1e6 cells

COc1ccc([C@@]23CCC(OP4(=O)OCCCO4)=C[C@@H]2N(C)CC3)cc1OC [Compound 422, 2-(((3aS,7aS)-3a-(3,4-dimethoxyphenyl)-1-methyl-2,3,3a, 4,5,7a-hexahydro-1H-indol-6-yl)oxy)-1,3,2-dioxaphosphinane 2-oxide]
Rat Plasma Prodrug (%) ([1]; 0 min): 100.0% | Rat Plasma Prodrug (%) ([1]; 10 min): >99% | Rat Plasma Prodrug (%) ([1]; 30 min): >99% | Rat Plasma Prodrug (%) ([1]; 60 min): >99% | Rat Plasma Prodrug (%) ([1]; 120 min): 91.0% | Rat Plasma Prodrug (%) ([1]; 240 min): 76.8% | Human Plasma Prodrug (%) ([2]; 0 min): 100.0% | Human Plasma Prodrug (%) ([2]; 10 min): 89.4% | Human Plasma Prodrug (%) ([2]; 30 min): 73.1% | Human Plasma Prodrug (%) ([2]; 60 min): 62.4% | Human Plasma Prodrug (%) ([2]; 120 min): 39.2% | Human Plasma Prodrug (%) ([2]; 240 min): 19.6% | half-life at 1 μM [3]: 366 min | hepatocyte CLint at 1 μM [3]: 3.9 µL/min/1e6 cells

COc1ccc([C@@]23CCC(OP(=O)(O)OCOC(=O)C(C)(C)C)=C[C@@H]2N(C)CC3)cc1OC [Compound 409, [[(3aS,7aS)-3a-(3,4-dimethoxyphenyl)-1-methyl-3,4,5,7a-tetrahydro-2H-indol-6-yl]oxy-hydroxy-phosphoryl]oxymethyl 2,2-dimethylpropanoate]
Rat Plasma Prodrug (%) ([1]; 0 min): 100.0% | Rat Plasma Prodrug (%) ([1]; 10 min): 89.9% | Rat Plasma Prodrug (%) ([1]; 30 min): 81.2% | Rat Plasma Prodrug (%) ([1]; 60 min): 71.0% | Rat Plasma Prodrug (%) ([1]; 120 min): 44.5% | Rat Plasma Prodrug (%) ([1]; 240 min): 22.7% | Human Plasma Prodrug (%) ([2]; 0 min): 100.0% | Human Plasma Prodrug (%) ([2]; 10 min): >99% | Human Plasma Prodrug (%) ([2]; 30 min): 95.2% | Human Plasma Prodrug (%) ([2]; 60 min): 93.0% | Human Plasma Prodrug (%) ([2]; 120 min): 87.3% | Human Plasma Prodrug (%) ([2]; 240 min): 75.8% | half-life at 1 μM [3]: 1540 min | hepatocyte CLint at 1 μM [3]: 1.1 µL/min/1e6 cells
